Reference: patent EP0252983B1, “SALTS OF N-(VINYLOXIETHYL)DITHIOCARBAMIC ACID, METHOD OF OBTAINING THEREOF AND […] ON THEM” (priority 1985, dated 1987)

What was measured:
Acremonium charticola = experiment: Mycelial growth inhibition on agar (contact activity); assay type: cell-based; conditions: Tabelle 12
Walrotiela subiculesa = experiment: as above; assay type: cell-based; conditions: Tabelle 12
Protocol: (§1) Die Prüfungen werden nach dem Verfahren zur Ermittlung der Kontaktaktivität durchgeführt. Man verwendet das in Wasser gelöste Kalium-N-(vinyloxyäthyl)dithiocarbamat, führt es in ein Nährmedium ein und vergießt auf Petri-Schalen. Nach 24 Stunden wird mit Pilzmyzelium nach einem Stichverfahren geimpft. Dann temperiert man die Schalen innerhalb von 5 Tagen bei einer zwischen 24 und 26 °C liegenden Temperatur und mißt den Durchmesser von Pilzkolonien, ermittelt den Prozentsatz der Hemmung des Myzelwachstums (S) ausgehend von Angaben am 5. Tag nach der Abbott-Formel [drawing 13] worin dc für den Durchmesser der Pilzkolonien, de für den Durchmesser von Pilzkolonien in der Schale stehen, wo ein die zu prüfenden Stoffe enthaltendes Medium vorhanden ist. Dieses Verfahren zur Ermittlung der mikrobiologischen Aktivität ist in anderen Beispielen verwendet.
(§2) Die Pilzkulturen werden auf Würzeagar gezüchtet. Ergebnisse, erhalten bei der Prüfung der fungiziden Aktivität gegen reine Kulturen von Mikroorganismen, welche Bioschädigungen hervorrufen, sind in der Tabelle 1 dargestellt.

Penicillium chrysogenum = experiment: as above; assay type: cell-based; conditions: Tabelle 12
Protocol: as §1, §2

Penicillium charlesii = experiment: as above; assay type: cell-based; conditions: Tabelle 12
Protocol: as §1, §2

Geotrichum candidum Link = experiment: as above; assay type: cell-based; conditions: Tabelle 12
Protocol: as §1, §2

[1] = Storage stability (descriptive); assay type: physicochemical
[2] = Acute toxicity (LD50) in mice; assay type: in vivo, weißen Mäusen; conditions: intraabdominale Applikation an weißen Mäusen
Acremonium cowum = experiment: Mycelial growth inhibition on agar (contact activity); assay type: cell-based; conditions: Tabelle 12
Cladosporium resinae = experiment: as above; assay type: cell-based; conditions: Tabelle 12
Bacillus = experiment: Bactericidal activity on agar (concentration of complete growth inhibition); assay type: cell-based; conditions: % bezogen auf den Wirkstoff; am 5. Tag
Protocol: (§3) Geprüft wird die bakterizide Aktivität von Kalium-, Natrium-, Zink- und Kupfersalzen der N-(Vinyloxyäthyl)dithiocarbamidsäure gegen Bakterien der Gattungen Bacillus, Micrococcus, Pseudomonas, Escherichia und Xantomonas.
(§4) Man stellt wäßrige Stofflösungen verschiedener Konzentration her, die so berechnet werden, daß die Stoffkonzentration in der Petri-Schale bei der Gabe von 1 ml Lösung in das geschmolzene Nährmedium (45 bis 50 °C) zwischen 0,003 und 25 % (bezogen auf den Wirkstoff) schwankt. Nach 18 bis 24 Stunden bringt man auf die Oberfläche des Nährmediums 0,1 ml wäßrige Suspension eintägiger reiner Kulturen von Bakterien auf und verteilt sie gleichmäßig. In Kontrollschalen verteilt sich 0,1 ml Wasser über die Oberfläche des Nährmediums. Die Inkubation erfolgt bei 37 °C innerhalb von 5 Tagen. Die Wirksamkeit der Stoffe wird nach dem Auftreten des Bakterienwachstums auf der Oberfläche des Nährmediums eingeschätzt. Die Prüfergebnisse sind in der Tabelle 13 dargestellt.

Micrococcus = experiment: as above; assay type: cell-based; conditions: % bezogen auf den Wirkstoff; am 5. Tag
Protocol: as §3, §4

Pseudomonas = experiment: as above; assay type: cell-based; conditions: % bezogen auf den Wirkstoff; am 5. Tag
Protocol: as §3, §4

Xantomonas = experiment: as above; assay type: cell-based; conditions: % bezogen auf den Wirkstoff; am 5. Tag
Protocol: as §3, §4

Escherichia = experiment: as above; assay type: cell-based; conditions: % bezogen auf den Wirkstoff; am 5. Tag
Protocol: as §3, §4

[3] = Solubility in water (descriptive); assay type: physicochemical
[4] = tested on: Cladosporium cladosporioides; experiment: Mycelial growth inhibition on agar (contact activity); assay type: cell-based; conditions: Tabelle 12
[5] = tested on: gewöhnlichen Mehlkäfern und Schwarmspinnerraupen; experiment: Antifeedant activity; assay type: in vivo; conditions: Vergleichsmuster Brestan
From the text: Die Prüfung der antiphydanten Aktivität wurde an gewöhnlichen Mehlkäfern und Schwarmspinnerraupen durchgeführt.

[6] = Konzentration des Praparats 0,1 %
[7] = Konzentration des Praparats 0,2 %
[8] = Konzentration des Praparats 0,4 %
[9] = Konzentration des Praparats 0,05 %
[10] = Konzentration des Praparats 0,8 %

With Kupfer-N-(vinyloxyäthyl)dithiocarbamat the Myzelhemmung in % (Acremonium charticola; [6]) was 50%, the Myzelhemmung in % (Acremonium charticola; [7]) was 100% and the Myzelhemmung in % (Acremonium charticola; [8]) was 100%. For the same substance, the Myzelhemmung in % (Acremonium charticola; [9]) was 43%, the Myzelhemmung in % (Acremonium charticola; [10]) was 100% and the Myzelhemmung in % (Walrotiela subiculesa; [6]) was 50%. For the same substance, the Myzelhemmung in % (Walrotiela subiculesa; [7]) was 45%, the Myzelhemmung in % (Walrotiela subiculesa; [8]) was 100% and the Myzelhemmung in % (Walrotiela subiculesa; [9]) was 0%. For the same substance, the Myzelhemmung in % (Walrotiela subiculesa; [10]) was 100%, the Myzelhemmung in % (Penicillium chrysogenum; [6]) was 4% and the Myzelhemmung in % (Penicillium chrysogenum; [7]) was 40%. The Myzelhemmung in % (Penicillium chrysogenum; [8]) was 85%, the Myzelhemmung in % (Penicillium chrysogenum; [9]) was 4% and the Myzelhemmung in % (Penicillium chrysogenum; [10]) was 100%. The Myzelhemmung in % (Penicillium charlesii; [6]) was 26%, the Myzelhemmung in % (Penicillium charlesii; [7]) was 37% and the Myzelhemmung in % (Penicillium charlesii; [8]) was 92%. It also gave a Myzelhemmung in % (Penicillium charlesii; [9]) of 24%, a Myzelhemmung in % (Penicillium charlesii; [10]) of 100% and a Myzelhemmung in % (Geotrichum candidum Link; [6]) of 100%. The Myzelhemmung in % (Geotrichum candidum Link; [7]) was 100%, the Myzelhemmung in % (Geotrichum candidum Link; [8]) was 100% and the Myzelhemmung in % (Geotrichum candidum Link; [9]) was 30%. The Myzelhemmung in % (Geotrichum candidum Link; [10]) was 100%, the Lagerbeständigkeit [1] was “lagerbeständig” and the LD50 [2] was 267 mg/kg. The Myzelhemmung in % (Acremonium cowum; [6]) was 100%, the Myzelhemmung in % (Acremonium cowum; [7]) was 100% and the Myzelhemmung in % (Acremonium cowum; [8]) was 100%. For the same substance, the Myzelhemmung in % (Acremonium cowum; [9]) was 50%, the Myzelhemmung in % (Acremonium cowum; [10]) was 100% and the Myzelhemmung in % (Cladosporium resinae; [6]) was 43%. It also gave a Myzelhemmung in % (Cladosporium resinae; [7]) of 75%, a Myzelhemmung in % (Cladosporium resinae; [8]) of 100% and a Myzelhemmung in % (Cladosporium resinae; [9]) of 34%. For the same substance, the Myzelhemmung in % (Cladosporium resinae; [10]) was 100%, the “Konzentrationen, welche das Bakterienwachstum völlig (100 %) hemmen” value (from here on “Konzentrationen … (100 %) hemmen”) (Bacillus) was 0,25% and the “Konzentrationen … (100 %) hemmen” value (Micrococcus) was 0,25%. The “Konzentrationen … (100 %) hemmen” value (Pseudomonas) was 0,25%, the “Konzentrationen … (100 %) hemmen” value (Xantomonas) was 0,25% and the “Konzentrationen … (100 %) hemmen” value (Escherichia) was 0,25%. For the same substance, the “Löslichkeit in Wasser” value [3] was “unlöslich”, the Myzelhemmung in % [4, 6] was 100% and the Myzelhemmung in % [4, 7] was 100%. For the same substance, the Myzelhemmung in % [4, 8] was 100%, the Myzelhemmung in % [4, 9] was 45% and the Myzelhemmung in % [4, 10] was 100%. The “antiphydante Aktivität” value [5] was “auf gleicher Höhe mit Brestan”.
